In US11957682B2, “Compounds and methods for regulating, limiting, or inhibiting AVIL expression” (University of Virginia Patent Foundation, priority 2017, dated 2024):

Experiments:
[1] = test system: astrocyte cells (non-cancer control); experiment: IC50 for inhibiting cell growth in astrocyte cells (non-cancer control); assay type: cell-based, human; conditions: inhibition of cell growth
Description: (§1) Cell Culture. The rhabdomyosarcoma cell lines RH30, RH18, and RD were cultured in RPMI-1640 medium with 10% FBS. RH18 was a gift from Dr. P. J. Houghton. Glioblastoma cell line U87 cells were cultured in Minimum Essential Medium Eagle (MEM), supplemented with 1 mM sodium pyruvate, 1% nonessential amino acids, 0.15% sodium bicarbonate, and 10% fetal bovine serum (FBS); T98G cells were cultured in MEM with 10% FBS; A172 cells were cultured in Dulbecco's modified Eagle's medium (DMEM) with 4.5 g/L glucose, and supplemented with 10% FBS; U251 cells were cultured in Roswell Park Memorial Institute medium with 5% FBS. Immortalized human astrocytes (a kind gift from Dr. Russ Pieper, University of California San Francisco) were grown in DMEM/F12 with 4.5 g/L of glucose, supplemented with 10% FBS. All cells were grown at 37° C. in 5% CO2-[…]. All cell lines unless specified were originally obtained from ATCC. They were not further authenticated.
(§2) In this example, samples of glioblastoma cells (U87) and astrocyte cells (non-cancer control) were exposed various disclosed compounds to determine the effectiveness of the compounds for inhibiting cell growth.

[2] = test system: glioblastoma cells (U87); experiment: IC50 for inhibiting cell growth in glioblastoma cells (U87); assay type: cell-based, human; conditions: inhibition of cell growth
Description: as §1, §2

[3] = test system: GBM lines (U87, A172, U251, and T98G); experiment: Cellular assays using GBM cell lines and immortalized astrocytes; assay type: cell-based, human; conditions: four GBM lines (U87, A172, U251, T98G) versus astrocytes
Description: as §1
To investigate whether AVIL is a viable drug target, a platform of small-molecule microarray was utilized (Bradner et al., 2006a; Bradner et al., 2006b) in order to identify compounds that interact with the AVIL protein. 50,000 small molecules were screened with recombinant advillin protein, including commercially available compounds, products of diversity-oriented synthesis, and known bioactive compounds. From these compounds, 82 advillin-interacting compounds were identified (FIG. 7A). […] Pubchem ID for the three compounds are as follows: Compound A is CID 56750508, Compound B is CID 56890068, and Compound C is CID 70768068.

[4] = target: T1, advillin recombinant protein (AVIL) (Homo sapiens, UniProt O75366); experiment: Thermal shift assay; assay type: binding; conditions: for binding with advillin recombinant protein: thermal shift assay
T1 construct: MBP (N, cleaved yes); made in house; host or cells: E. coli BL21 (DE3)
T1 sequence (O75366 1-819): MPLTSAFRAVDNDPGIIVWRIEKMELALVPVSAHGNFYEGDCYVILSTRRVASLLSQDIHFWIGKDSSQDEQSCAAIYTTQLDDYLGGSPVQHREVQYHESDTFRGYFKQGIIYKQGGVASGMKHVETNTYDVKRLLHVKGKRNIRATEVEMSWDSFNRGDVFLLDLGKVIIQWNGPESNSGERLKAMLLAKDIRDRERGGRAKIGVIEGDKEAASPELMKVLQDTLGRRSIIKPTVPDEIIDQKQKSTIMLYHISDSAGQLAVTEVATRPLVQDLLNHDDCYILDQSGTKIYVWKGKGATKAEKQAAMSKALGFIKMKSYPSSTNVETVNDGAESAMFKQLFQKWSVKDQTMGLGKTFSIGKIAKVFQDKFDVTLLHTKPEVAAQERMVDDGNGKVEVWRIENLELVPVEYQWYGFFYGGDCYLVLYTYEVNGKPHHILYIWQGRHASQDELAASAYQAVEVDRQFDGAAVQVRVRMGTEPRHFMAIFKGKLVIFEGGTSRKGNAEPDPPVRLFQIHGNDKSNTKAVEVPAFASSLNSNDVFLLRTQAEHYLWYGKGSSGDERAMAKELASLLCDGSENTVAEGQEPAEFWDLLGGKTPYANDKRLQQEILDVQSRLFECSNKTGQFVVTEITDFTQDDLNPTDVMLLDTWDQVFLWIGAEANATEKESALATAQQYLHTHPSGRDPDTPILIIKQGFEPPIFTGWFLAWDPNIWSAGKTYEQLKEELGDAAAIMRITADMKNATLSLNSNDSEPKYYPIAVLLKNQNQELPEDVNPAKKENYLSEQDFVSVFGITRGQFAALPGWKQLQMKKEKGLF
Description: Protein purification. The sequence for human Advillin (AVIL) was cloned into the pMAL-c4x vector. The corresponding plasmid was transformed into BL21 (DE3) cells. Expression of MBP-AVIL was induced at OD600≈0.7 by the addition of 1 mM IPTG, and continued for 18 hrs at 23° C. Harvested cells were subsequently resuspended in 20 mM Tris-HCl pH 7.4, 200 mM NaCl, 1 mM EDTA, 1 mM DTT (Wash Buffer), supplemented with Complete Protease Inhibitor Cocktail (Roche), lysed in Emulsiflex C3 (AVESTIN) and cell debris was removed by centrifugation. MBP-AVIL was immobilized on Amylose Resin (New England BioLabs) followed by extensive washing (>50 column volumes) with Wash Buffer. Protein was eluted with Wash Buffer supplemented with 10 mM Maltose. After overnight incubation with TEV protease, MBP-tag was removed by size exclusion on HiLoad 16/600 Superdex 200 pg columns, previously equilibrated to 20 mM HEPES, pH 7.4, 50 mM NaCl, 1 mM DTT (Protein Buffer). Recombinant AVIL was flash-frozen in liquid nitrogen and stored in −80° C.
Thermal shift assay. SYPRO Orange (ThermoFisher Scientific) was added to 0.5 mg/ml AVIL (in Protein Buffer) in a 1:4500 ratio. 2.5 uL increasing concentrations of candidate compounds were added to 22.5 μL of AVIL/SYPRO Orange mixture on a 96 well plate (10% final concentration of DMSO). Protein unfolding was measured in a CFX96 qPCR (Bio-Rad) instrument with 0.2° C./15 sec steps, over the range of 20-90° C.

[5] = test system: RH30 rhabdomyosarcoma cells; experiment: Cell survival / crystal violet staining of RH30 cells; assay type: cell-based; conditions: 20 μM
Description: as §1
(§3) RH30 and RD are rhabdomyosarcoma cells. MSC is mesenchymal stem cells, as a non-cancer control.

[6] = test system: MSC mesenchymal stem cells (non-cancer control); experiment: Cell survival / crystal violet staining of MSC cells; assay type: cell-based; conditions: 20 μM
Description: as §3

[7] = test system: RD rhabdomyosarcoma cells; experiment: Cell survival / crystal violet staining of RD cells; assay type: cell-based; conditions: 20 μM
Description: as §1, §3

[8] = test system: U87 xenograft; experiment: U87 xenograft model, intra-tumor injection; assay type: in vivo, NIH-III Nude mice
Description: Astrocytes stably expressing AVIL or an empty vector were injected subcutaneously into the flanks of NIH-III Nude mice. Around 2 million cells were used per injection. The animals were monitored twice a week. For drug treatment, 1.5 million U87 cells were injected subcutaneously into the flanks of NIH-III Nude mice. Compound 56750508 was dissolved in 50% DMSO, 15% ethanol, and 35% water. After tumors became visible (around 2 weeks), 50 ul drug solution or solvent was injected intra-tumorly. Three injections were performed with two day intervals.
(§4) The effect of the three compounds on LIN28B expression was tested. […] To test whether the compounds can trigger transcriptome response similar to siAVIL, a microarray analysis of the U87 cells treated with these compounds was performed. Strikingly, cells treated with all three compounds had similar transcriptome profiles when compared to that of the siAVIL transfected cells, by both gene ontology and Gene Set Enrichment analyses (example in FIGS. 7F and 7G).

[9] = test system: U87 cells; experiment: Microarray analysis of U87 cells treated with compounds (gene ontology, GSEA); assay type: cell-based, human; conditions: gene set downregulated by siAVIL
Description: as §4

[10] = three intra-tumor injections with two day intervals, versus solvent control, at harvest

| SMILES | IC50 ([2]; Homo sapiens) [µM] | IC50 ([1]; Homo sapiens, Astrocyte) [µM] | also measured |
| --- | --- | --- | --- |
| c1ccc(CCC2CCN(CC3[C@H]4CNC[C@@H]34)CC2)cc1 (stereo partly shown) [Compound B] |  |  | IC50 values in GBM lines compared to astrocytes [3]: significantly different IC50 values; binding with advillin recombinant protein [4]: confirmed binding |
| Nc1cc(N2CCCC(CCCc3ccccc3)(C(=O)O)C2)nc(N)n1 (stereo not shown) [K] | 39 | 34 |  |
| CN(Cc1ccc(Oc2ccccc2)cc1)C(=O)C1C[C@@H](O)CN1 (stereo partly shown) [Compound C] |  |  | IC50 values in GBM lines compared to astrocytes [3]: significantly different IC50 values; binding with advillin recombinant protein [4]: confirmed binding |
| CCCC1(CO)CCCN(c2cc(N3CCN(C)CC3)nc(N)n2)C1 (stereo not shown) [L] | > 80 | > 80 |  |
| Nc1cc(N2CCCC(CO)(CCCc3ccccc3)C2)nc(N)n1 (stereo not shown) [H] |  |  | IC50 [1]: 59 µM; IC50 [2]: 8 µM |

The next lines start with results.

| IC50 ([2]; Homo sapiens) [µM] | SMILES | IC50 ([1]; Homo sapiens, Astrocyte) [µM] | also measured |
| --- | --- | --- | --- |
| 2.5 | Nc1cc(N2CCC(CO)(CCCc3ccccc3)CC2)nc(N)n1 [D] | 51 |  |
| 1 | Nc1nccc(N2CCCC(CCc3ccccc3)C2)n1 (stereo not shown) [E] | 30 |  |
| 10 | Nc1cc(N2CCCC(CO)(CCCc3ccccc3)C2)nc(N)n1 (stereo not shown) [G] | > 80 |  |
| 19 | Cc1nccc(N2CCCC(CO)(CCCc3ccccc3)C2)n1 (stereo not shown) [Compound I] | 80 |  |
| 4 | Nc1nccc(N2CCC(CO)(CCCc3ccccc3)CC2)n1 [F] | 28 |  |
| 20 | Nc1cc(N2CCCC(CO)(CCCc3ccccc3)C2)ncn1 (stereo not shown) [J] | > 80 |  |
| 9 | Nc1nccc(N2CCCC(CO)(CCCc3ccccc3)C2)n1 (stereo not shown) [Compound A] | 55 | IC50 values in GBM lines compared to astrocytes [3]: significantly different IC50 values; melting temperature (Tm) shift of AVIL protein ([4]; increasing concentrations of compound): dose-dependent melting temperature (Tm) shift; binding with advillin recombinant protein [4]: confirmed binding; effect on RH30 cells [5]: most if not all of the RH30 and RD cells were wiped out; effect on MSC cells [6]: no significant effect; effect on RD cells [7]: most if not all of the RH30 and RD cells were wiped out; side effect in the animals ([8]; three injections): did not observe any obvious side effect; tumor volume [8, 10]: significantly smaller; tumor weight [8, 10]: significantly smaller; GSEA enrichment score [9]: highest GSEA enrichment score |
